pKi: −log10 of the molar value.
What was measured:
[1] = biological target: T1, 5-hydroxytryptamine receptor 1A (Rattus norvegicus, UniProt P19327); experiment: Binding affinity to 5HT1A receptor in rat hippocampus; type: tissue-based
T1 sequence (P19327 whole entry): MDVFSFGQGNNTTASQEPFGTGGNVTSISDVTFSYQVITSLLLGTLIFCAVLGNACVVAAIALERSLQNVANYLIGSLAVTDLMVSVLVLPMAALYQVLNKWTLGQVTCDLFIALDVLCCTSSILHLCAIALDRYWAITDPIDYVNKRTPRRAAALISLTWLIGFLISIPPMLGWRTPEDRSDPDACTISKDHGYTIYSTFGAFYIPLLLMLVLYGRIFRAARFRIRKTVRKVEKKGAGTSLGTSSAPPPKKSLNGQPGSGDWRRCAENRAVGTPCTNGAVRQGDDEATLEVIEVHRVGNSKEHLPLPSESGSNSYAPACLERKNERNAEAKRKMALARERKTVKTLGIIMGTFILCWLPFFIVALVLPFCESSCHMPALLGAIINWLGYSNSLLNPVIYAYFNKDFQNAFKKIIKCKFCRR

[2] = biological target: 5-hydroxytryptamine receptor 2A (Rattus norvegicus, UniProt P14842); experiment: Binding affinity to 5HT2A receptor in rat cortex; type: tissue-based
Chain of 5-hydroxytryptamine receptor 2A (P14842 whole entry): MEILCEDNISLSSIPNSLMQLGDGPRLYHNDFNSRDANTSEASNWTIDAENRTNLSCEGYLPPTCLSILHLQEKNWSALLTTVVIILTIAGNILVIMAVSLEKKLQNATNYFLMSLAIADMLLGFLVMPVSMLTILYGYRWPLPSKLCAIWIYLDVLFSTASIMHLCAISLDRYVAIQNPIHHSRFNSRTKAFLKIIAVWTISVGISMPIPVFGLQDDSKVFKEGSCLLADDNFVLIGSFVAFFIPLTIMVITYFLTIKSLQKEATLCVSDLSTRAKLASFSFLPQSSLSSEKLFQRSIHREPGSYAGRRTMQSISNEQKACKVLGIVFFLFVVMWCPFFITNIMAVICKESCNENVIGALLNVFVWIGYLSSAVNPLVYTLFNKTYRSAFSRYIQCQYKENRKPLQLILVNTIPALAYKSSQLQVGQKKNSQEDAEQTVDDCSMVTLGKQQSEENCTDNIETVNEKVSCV

[3] = biological target: 5-hydroxytryptamine receptor 7 (Homo sapiens, UniProt P34969); experiment: Binding affinity to human cloned 5HT7 receptor expressed in HEK293 cells; type: cell-based
Chain of 5-hydroxytryptamine receptor 7 (P34969 whole entry): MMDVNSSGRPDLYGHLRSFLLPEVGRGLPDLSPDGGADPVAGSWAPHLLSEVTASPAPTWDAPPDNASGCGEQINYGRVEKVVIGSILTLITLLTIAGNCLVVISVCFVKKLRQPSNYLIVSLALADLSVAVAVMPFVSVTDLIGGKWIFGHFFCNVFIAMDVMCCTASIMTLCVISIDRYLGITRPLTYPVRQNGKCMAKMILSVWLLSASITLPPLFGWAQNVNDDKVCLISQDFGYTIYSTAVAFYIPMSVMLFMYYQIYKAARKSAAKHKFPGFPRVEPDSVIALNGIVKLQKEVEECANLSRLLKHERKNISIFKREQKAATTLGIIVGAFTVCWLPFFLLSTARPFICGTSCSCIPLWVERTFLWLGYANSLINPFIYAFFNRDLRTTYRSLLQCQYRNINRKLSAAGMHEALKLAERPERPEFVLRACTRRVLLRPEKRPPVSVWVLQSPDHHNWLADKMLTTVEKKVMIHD

[4] = Selectivity of Ki for human 5HT7 receptor to Ki for rat 5HT1A

O=S(=O)(c1ccccc1)C1(CCCN2CCc3ccccc3C2)CCC1
pKi [1]: 7.46 | pKi [2]: 7.19

NC(=NCCCCNS(=O)(=O)c1cccc2ccccc12)N1CCc2ccccc2C1
pKi [1]: 5.68 | pKi [2]: 6.71 | pKi [3]: 6.70

Cc1cccc(S(=O)(=O)NCCN=C(N)N2CCC(c3ccccc3)CC2)c1
pKi [1]: 5.34 | pKi [2]: 6.80 | pKi [3]: 6.79

CC1CCN(CCC2CCCN2S(=O)(=O)c2cccc(O)c2)CC1 (single isomer, unassigned)
pKi [1]: < 5.00 | pKi [2]: < 5.00

COc1ccccc1N1CCN(C(=N)NCCNS(=O)(=O)c2cccc(C)c2)CC1
Ratio Ki [4]: 31

COc1ccccc1N1CCN(CCCNS(=O)(=O)c2ccc3ccccc3c2)CC1
pKi [1]: 8.34 | pKi [2]: 7.07 | pKi [3]: 7.70

COc1ccccc1N1CCN(C(N)=NCCCNS(=O)(=O)c2cccc3ccccc23)CC1
pKi [1]: 5.01 | pKi [2]: 6.03 | pKi [3]: 6.71

COc1ccccc1N1CCN(C(N)=NCCNS(=O)(=O)c2cccc(C)c2)CC1
pKi [1]: 4.98 | pKi [2]: 5.94 | pKi [3]: 6.47

Cc1cccc(S(=O)(=O)NCCN=C(N)N2CCC(C)CC2)c1
pKi [1]: 5.96 | pKi [2]: 6.83 | pKi [3]: 6.75

Cc1cccc(S(=O)(=O)NCCCN=C(N)N2CCC(c3ccccc3)CC2)c1
pKi [1]: 4.75 | pKi [2]: 5.90 | pKi [3]: 6.56

COc1ccccc1N1CCN(C(=O)NC(=N)NCc2cccc3ccccc23)CC1
pKi [1]: 6.28 | pKi [2]: 6.82

Cc1cccc(S(=O)(=O)NCCCCN=C(N)N2CCC(c3ccccc3)CC2)c1
pKi [1]: 4.92 | pKi [2]: 6.11 | pKi [3]: 6.82

COc1ccccc1N1CCN(C(=N)NCCCCNS(=O)(=O)c2ccc(C)cc2)CC1
pKi [1]: 4.99 | pKi [2]: 6.47 | pKi [3]: 6.85

CCOc1ccccc1CNC(=N)NC(=O)NC
pKi [1]: < 5.40 | pKi [2]: 6.40 | pKi [3]: 7.31

Reference: ChEMBL document CHEMBL1154019, “Sulfonamides with the N-alkyl-N'-dialkylguanidine moiety as 5-HT7 receptor ligands” (Bioorg Med Chem Lett, 2009)
